Paper PMC10686834, “Targeting myeloid chemotaxis to reverse prostate cancer therapy resistance” (Nature, 2023)

Columns and labels:
[1] = system: P-glycoprotein (P-gp; MDR1) transporter mRNA; parameters: method as in AZD5069 Investigator Brochure (IB); conditions: human hepatocytes; ref AZD5069 Investigator Brochure (IB); cited from earlier work
[2] = system: patients with bronchiectasis; conditions: cited from earlier work
[3] = Pharmacokinetics of AZD5069 in plasma, non-compartmental analysis (AUClast, Cmax); type: in vivo, human
Description: Specific pharmacokinetic collection time points are listed in the study protocol. Pharmacokinetic parameters were calculated using non-compartmental analysis (Phoenix v.8.1, Certara). Fresh tumour needle core biopsies from matched disease sites (lymph node, bone and soft tissue) were collected at baseline (within 1 week of treatment commencement) and approximately 2 weeks after starting AZD5069 in patients when this was deemed safe and feasible. Tumour biopsies were obtained from 18 patients under computerized tomography or ultrasound guidance by an experienced interventional radiologist (N.T.). […] One patient had only a baseline tumour biopsy. Two patients underwent on-treatment biopsies after 4 weeks. Immediately after biopsy, tumour samples were immersed in 10% neutral-buffered formalin for 24 hours. Samples were processed through paraffin wax for histologic examination. Three 3 μm sections of formalin-fixed paraffin-embedded (FFPE) tumour biopsy were stained with haematoxylin and eosin to confirm the presence of tumour by a pathologist (B.G.). Tumour samples with insufficient tumour content or significant crushed artefact were excluded from analyses (B.G.). Baseline FFPE samples were analysed by IHC, and pre- and post-treatment FFPE biopsies were analysed by IF and targeted RNA profiling using HTG EdgeSeq. All samples that failed initial analyses by IF were restained at least once. A list of tumour samples and their methods of analyses are detailed in Supplementary Table 4.

CYP3A4 [4] = system: CYP3A4; parameters: method as in AZD5069 Investigator Brochure (IB); conditions: at concentrations of up to 100 μmol/L; ref AZD5069 Investigator Brochure (IB); cited from earlier work
CYP2B6 = system: CYP2B6; parameters: method as in AZD5069 Investigator Brochure (IB); conditions: at concentrations of up to 100 μmol/L; ref AZD5069 Investigator Brochure (IB); cited from earlier work
CYP2C9 = system: CYP2C9; parameters: method as in AZD5069 Investigator Brochure (IB); conditions: ref AZD5069 Investigator Brochure (IB); cited from earlier work
CYP2D6 = system: CYP2D6; parameters: method as in AZD5069 Investigator Brochure (IB); conditions: at concentrations of up to 100 μmol/L; ref AZD5069 Investigator Brochure (IB); cited from earlier work
[5] = system: AR activity and AR-V7 signatures; experiment: RNA profiling (HTG EdgeSeq) of paired FFPE tumour biopsies: AR activity and AR-V7 signatures; type: in vivo, human; conditions: paired biopsies with decreased myeloid cell density (seven pairs)
Description: RNA profiling of FFPE tumour biopsies collected before and after starting AZD5069 was carried out by HTG EdgeSeq (HTG Molecular Diagnostics) using the HTG human transcriptome panel containing 19,616 nuclease protection probes (NPPs), including 19,398 gene target-specific 50-nucleotide probes, 100 negative control probes, 92 probes for RNA controls established by the External RNA Control Consortium, 22 probes that measure gDNA and 4 positive control probes. The assay was carried out with a minimum of 11 mm^2 of FFPE tumour micro-dissected sections. The sections were lysed according to the manufacturer’s instructions, and added to a 96-well plate on the HTG EdgeSeq Processor (HTG Molecular Diagnostics) on which a quantitative nuclease protection assay was carried out. The addition of DNA nuclease protection probes (NPPs) was automated and they were allowed to hybridize for 16 hours to the target mRNAs. The excess non-hybridized DNA probes and non-hybridized mRNA were removed by S1 digestion leaving only NPPs hybridized to mRNA. […] After clean-up and quantification by quantitative PCR using the kit KAPA Library Quantification Kit Illumina platforms, the libraries were pooled and sequenced on the NextSeq 500 using a High Throughput 75-cycle v.2.5 kit (Illumina). […] Data were analysed using the HTG EdgeSeq Reveal analysis software. […]

[6] = parameters: method as in AZD5069 Investigator Brochure (IB); conditions: ref AZD5069 Investigator Brochure (IB), cited from earlier work
CYP3A4 [7] = system: CYP3A4; parameters: method as in AZD5069 Investigator Brochure (IB); conditions: co-administration with ketoconazole; ref AZD5069 Investigator Brochure (IB); cited from earlier work
P-glycoprotein (P-gp) = system: P-glycoprotein (P-gp); parameters: method as in AZD5069 Investigator Brochure (IB); conditions: at concentrations of up to 100 μmol/L; ref AZD5069 Investigator Brochure (IB); cited from earlier work
monkey = conditions: in vivo; cited from earlier work
CYP2A6 = system: CYP2A6; parameters: method as in AZD5069 Investigator Brochure (IB); conditions: at concentrations of up to 100 μmol/L; ref AZD5069 Investigator Brochure (IB); cited from earlier work
[8] = bronchiectasis study NCT01255592, on AZD5069, ref AZD5069 Investigator Brochure (IB)

In the case of `C[C@@H](Oc1cc(NS(=O)(=O)N2CCC2)nc(SCc2cccc(F)c2F)n1)[C@@H](O)CO` [AZD5069], the “induction of P-glycoprotein (P-gp; MDR1) transporter mRNA” value [1] is given as “concentration dependent induction”, the “mean reduction in blood neutrophils” value ([2]; bronchiectasis study NCT01255592, 80 mg BD, ref AZD5069 Investigator Brochure (IB)) is given as “approximately 16%” and the “reduction in sputum neutrophils compared with placebo” value ([2]; bronchiectasis study NCT01255592, after 4 weeks’ treatment, ref AZD5069 Investigator Brochure (IB)) is given as 69%. For the same compound, the “patients reporting adverse events (AEs)” value [2, 8] was 23 of 26, the “patients who withdrew because of AEs” value [2, 8] was 5 and the infections reported ([2]; in vivo) was 34.6%. For the same compound, the “AZD5069 exposure (AUClast and Cmax) at steady state versus dose” value ([3]; AZD5069 monotherapy day 15, 40 to 160 mg BD) was “increased in a dose-dependent manner”, the “AZD5069 exposure (AUClast) with enzalutamide” value ([3]; combination (28 days) versus monotherapy (14 days), particularly at the higher dose levels) was “decreased after the addition of enzalutamide” and the “drug exposure (AUClast and Cmax)” value ([3]; partial responder at AZD5069 80 mg BD) was “comparable to those of patients treated at 160 mg BD”. For the same compound, the “inhibition of CYP3A4” value (CYP3A4 [4]) was “not an inhibitor”, the “inhibition of CYP2B6” value (CYP2B6) was “not an inhibitor” and the IC50 (CYP2C9) was about 53.8 µM. The “inhibition of CYP2D6” value (CYP2D6) was “not an inhibitor”, the “AR activity and AR-V7 mRNA signatures in tumour biopsies” value [5] was “downregulation of AR activity and AR-V7 signatures” and the tmax ([6]; fasting conditions) was ~ 2 hours. The initial half-life ([6]; plasma) was 4 h, the terminal half-life ([6]; plasma) was 11 h and the “apparent volume of distribution” value [6] was ~ 53 L. For the same compound, the food effect [6] was “reduces the peak concentration but total exposure (AUC) is unchanged”, the “fraction of the drug renally excreted” value [6] was “Less than 10%” and the total plasma clearance [6] was ~ 8 L/h. For the same compound, the “systemic exposure versus dose” value ([6]; single and repeated BD dosing) was “proportional to the dose”, the “increased exposure (AUC)” value (CYP3A4 [7]) was 2.1 fold and the “increased exposure (Cmax)” value (CYP3A4 [7]) was 1.6 fold. The “inhibition of P-glycoprotein (P-gp)” value (P-glycoprotein (P-gp)) was “not an inhibitor”, the NOAEL (monkey) was 262.5 mg/kg BD and the “inhibition of CYP2A6” value (CYP2A6) was “not an inhibitor”.
